From ChEMBL document CHEMBL1201862, “PubChem BioAssay data set” (2004) come the findings set out here.

SMILES strings stand for the structures. The source made the active and inactive calls.

Data set [1] is described as follows: Luminescence Cell-Based Dose Confirmation HTS to Identify Activators of 5'UTR Stem-Loop Driven Alpha-Synuclein mRNA Translation in H4 Neuroglioblastoma Cells. [Related pubchem assays: 1829 (Project Summary), 1814 (Primary HTS)]. It is filed as functional.
The nature of data set [2]: Luminescence Cell-Based Dose Response HTS to Identify Activators of Luciferase Translation or Activity in H4 […] Cells. [Related pubchem assays: 1829 (Project Summary), 1814 (Primary HTS)]. It is filed as functional.
The subject of another data set is H4. Description: Luminescence Cell-Based Dose Response HTS to Identify Activators of 5'UTR Stem-Loop Driven Prion Protein mRNA Translation in H4 Neuroglioblastoma Cells. [Related pubchem assays: 1829 (Project Summary), 1814 (Primary HTS)]. It is filed as functional. To be noted: Homo sapiens.
A short description of data set [3]: Luminescence Cell-Based Dose Retest to Confirm Inhibitors of Cancer Stem Cells. [Related pubchem assays (depositor defined):AID2717, AID2721]. It is filed as functional. To be noted: Homo sapiens.
A further data set addresses Cytochrome P450 2C19 (Homo sapiens, UniProt P33261). Kind of data set: Cytochrome panel assay with activity outcomes. Panel member name: p450-cyp2c19 Compounds with AC50 equal or less than 10 uM are considered active. It is filed as functional. Particulars: read-out: AC50.
In the next data set the target is T1, Cytochrome P450 1A2 (Homo sapiens, UniProt P05177).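 Further: PubChem cytochrome P450 panel assay, CYP1A2 panel member.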
T1 sequence (P05177 whole entry): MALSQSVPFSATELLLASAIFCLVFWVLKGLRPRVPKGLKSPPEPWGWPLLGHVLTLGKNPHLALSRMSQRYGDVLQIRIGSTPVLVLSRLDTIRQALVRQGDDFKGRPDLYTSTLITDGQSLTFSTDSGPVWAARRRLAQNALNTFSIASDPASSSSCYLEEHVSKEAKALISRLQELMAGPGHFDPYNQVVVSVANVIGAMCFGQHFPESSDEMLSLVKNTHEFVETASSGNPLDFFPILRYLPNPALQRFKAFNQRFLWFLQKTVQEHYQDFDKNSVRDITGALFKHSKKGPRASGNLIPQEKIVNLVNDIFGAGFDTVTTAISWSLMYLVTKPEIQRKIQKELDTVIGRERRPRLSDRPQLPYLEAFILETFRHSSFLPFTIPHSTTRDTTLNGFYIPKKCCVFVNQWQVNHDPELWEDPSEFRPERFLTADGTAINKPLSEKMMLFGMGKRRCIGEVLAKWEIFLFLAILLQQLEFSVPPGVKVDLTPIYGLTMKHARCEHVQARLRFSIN

The next data set concerns the target Cytochrome P450 3A4 (Homo sapiens, UniProt P08684).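 Further: CYP3A4 tested as one member of a cytochrome P450 panel screen.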
A further data set concerns the target Cytochrome P450 2C9 (Homo sapiens, UniProt P11712).
The target of data set [4] is Heat shock protein HSP 90-alpha (Homo sapiens, UniProt P07900). It counts as functional, organism-based.
For data set [5], the target named is T2, Short transient receptor potential channel 4 (Mus musculus, UniProt Q9QUQ5).
T2 sequence (Q9QUQ5 whole entry): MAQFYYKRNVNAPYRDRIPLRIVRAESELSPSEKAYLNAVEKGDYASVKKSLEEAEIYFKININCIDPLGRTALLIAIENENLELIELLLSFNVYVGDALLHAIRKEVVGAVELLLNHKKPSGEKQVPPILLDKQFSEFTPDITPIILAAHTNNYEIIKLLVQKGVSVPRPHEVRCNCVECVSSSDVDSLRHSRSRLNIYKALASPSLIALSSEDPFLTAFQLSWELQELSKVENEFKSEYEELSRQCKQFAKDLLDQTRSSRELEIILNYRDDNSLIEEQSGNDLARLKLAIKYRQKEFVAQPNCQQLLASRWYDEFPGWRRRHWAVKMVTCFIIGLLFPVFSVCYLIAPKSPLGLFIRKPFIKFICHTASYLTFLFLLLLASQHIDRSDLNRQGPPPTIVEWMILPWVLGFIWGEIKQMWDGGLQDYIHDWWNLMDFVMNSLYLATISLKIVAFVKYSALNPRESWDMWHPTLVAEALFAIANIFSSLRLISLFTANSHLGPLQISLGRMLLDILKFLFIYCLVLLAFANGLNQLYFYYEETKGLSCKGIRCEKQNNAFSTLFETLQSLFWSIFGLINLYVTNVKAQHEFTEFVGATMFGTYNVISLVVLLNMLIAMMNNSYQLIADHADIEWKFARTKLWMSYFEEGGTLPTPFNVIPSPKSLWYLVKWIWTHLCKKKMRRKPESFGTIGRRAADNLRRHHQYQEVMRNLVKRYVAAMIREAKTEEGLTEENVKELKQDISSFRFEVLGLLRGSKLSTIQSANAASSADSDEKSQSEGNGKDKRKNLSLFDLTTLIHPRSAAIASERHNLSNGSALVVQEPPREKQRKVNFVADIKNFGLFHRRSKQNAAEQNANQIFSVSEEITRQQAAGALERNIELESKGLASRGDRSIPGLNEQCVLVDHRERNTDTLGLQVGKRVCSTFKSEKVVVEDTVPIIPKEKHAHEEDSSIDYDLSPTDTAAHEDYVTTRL
Description: calcium entry via TRPC4 opening agents – cell-based, HEK293 TRPC4/mu-opioid, Fluo-4 calcium, dose response (AID 434937). It is filed as functional.

Data set [6] deals with Delta-type opioid receptor (Homo sapiens, UniProt P41143). Description: Counterscreen for agonists of heterodimerization of the mu 1 (OPRM1) and delta 1 (OPRD1) opioid receptors: Luminescence-based cell-based high throughput dose response assay to identify agonists of OPRD1 homodimerization. [Related pubchem assays (depositor defined):AID504326, AID504355, AID504692, AID504904, AID504905]. It is filed as functional. In general terms: The purpose of a counterscreen is to sort out artefacts and off-target activity.

In the next data set the target is Mu-type opioid receptor (Homo sapiens, UniProt P35372). Description: Counterscreen for agonists of heterodimerization of the mu 1 (OPRM1) and delta 1 (OPRD1) opioid receptors: Luminescence-based cell-based high throughput dose response assay to identify agonists of OPRM1 homodimerization. It counts as functional.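 Further: U2OS cells expressing OPRM1 and beta-arrestin as split beta-galactosidase partners.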
Data set [7] addresses 5-hydroxytryptamine receptor 5A (Homo sapiens, UniProt P47898). Kind of data set: Counterscreen for agonists of OPRM1-OPRD1 heterodimerization: luminescence-based cell-based high throughput dose response assay to identify agonists of 5-hydroxytryptamine (serotonin) 5A receptor (HTR5A). [Related pubchem assays (depositor defined):AID504326, AID504355, AID504692, AID504904, AID504905]. It counts as functional.

A further data set concerns CHO-K1. Kind of data set: Counterscreen for antagonists of the orexin 1 receptor (OX1R; HCRTR1): Homogeneous time resolved fluorescence (HTRF)-based cell-based dose response assay to identify antagonists of the parental CHO-K1 cell line. [Related pubchem assays (depositor defined):AID434989, AID435008, AID463079, AID485270, AID492963, AID492964, AID492965, AID493232, AID504699, AID504701]. It is filed as functional. To be noted: Cricetulus griseus.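 Further: potency for inhibition of ATP-stimulated IP1 production as antagonists.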

Data set [8] can be described thus: Counterscreen for antagonists of the orexin 1 receptor (OX1R; HCRTR1): Fluorescence-based cell-based high throughput dose response assay to identify antagonists of the parental CHO cell line. [Related pubchem assays (depositor defined):AID434989, AID435008, AID463079, AID485270, AID492963, AID492964, AID492965, AID493232, AID504699, AID504701]. It counts as functional.

Data set [9] deals with T3, Orexin/Hypocretin receptor type 1 (Homo sapiens, UniProt O43613).
T3 sequence (O43613 whole entry): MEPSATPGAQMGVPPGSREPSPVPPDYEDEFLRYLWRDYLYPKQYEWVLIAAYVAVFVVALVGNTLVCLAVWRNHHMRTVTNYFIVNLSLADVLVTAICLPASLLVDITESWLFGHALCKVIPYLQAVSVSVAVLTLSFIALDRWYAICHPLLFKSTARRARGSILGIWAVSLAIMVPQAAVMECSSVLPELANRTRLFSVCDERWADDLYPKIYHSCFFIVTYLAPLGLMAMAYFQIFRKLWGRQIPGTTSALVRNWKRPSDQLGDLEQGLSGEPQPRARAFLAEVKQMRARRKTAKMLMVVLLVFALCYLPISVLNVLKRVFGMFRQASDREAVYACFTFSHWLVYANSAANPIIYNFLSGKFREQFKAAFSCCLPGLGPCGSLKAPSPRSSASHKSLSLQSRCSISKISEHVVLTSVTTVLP
Description: Homogeneous Time Resolved Fluorescence (HTRF)-based cell-based high throughput dose response assay for antagonists of the orexin 1 receptor (OX1R; HCRTR1). [Related pubchem assays (depositor defined):AID434989, AID435008, AID463079, AID485270, AID492963, AID492964, AID492965, AID493232, AID504717, AID504718]. It is filed as functional. (In general: In TR-FRET formats the signal depends on donor and acceptor labels being close together.)

Data set [10] has as its target T3, Orexin/Hypocretin receptor type 1. Description: Fluorescence-based cell-based high throughput dose response assay for antagonists of the orexin 1 receptor (OX1R; HCRTR1). [Related pubchem assays (depositor defined):AID434989, AID435008, AID463079, AID485270, AID492963, AID492964, AID492965, AID493232, AID504717, AID504718]. It counts as functional.
In data set [11] the target is T4, Orexin receptor type 2 (Homo sapiens, UniProt O43614).
T4 sequence (O43614 whole entry): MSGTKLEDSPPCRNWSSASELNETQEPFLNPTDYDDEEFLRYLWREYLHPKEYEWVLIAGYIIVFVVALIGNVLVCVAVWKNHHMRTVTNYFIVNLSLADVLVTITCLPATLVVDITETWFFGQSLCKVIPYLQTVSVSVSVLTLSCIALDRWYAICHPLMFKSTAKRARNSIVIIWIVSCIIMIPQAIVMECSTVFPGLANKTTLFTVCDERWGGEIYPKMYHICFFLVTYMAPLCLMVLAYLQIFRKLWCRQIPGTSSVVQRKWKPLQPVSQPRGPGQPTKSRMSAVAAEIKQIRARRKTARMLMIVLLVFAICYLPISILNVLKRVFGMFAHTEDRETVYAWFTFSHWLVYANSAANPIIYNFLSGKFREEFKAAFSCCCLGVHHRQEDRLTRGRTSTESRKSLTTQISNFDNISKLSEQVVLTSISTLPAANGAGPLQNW
Kind of data set: Counterscreen assay for antagonists of the orexin 1 receptor (OX1R; HCRTR1): Fluorescence-based cell-based dose response assay for antagonists of the orexin 2 receptor (OX2R; HCRTR2), run by assay provider. It counts as functional.

Data set [12] deals with T4, Orexin receptor type 2. Description: Counterscreen assay for antagonists of the orexin 1 receptor (OX1R; HCRTR1): Homogeneous Time Resolved Fluorescence (HTRF)-based cell-based dose response assay for antagonists of the orexin 2 receptor (OX2R; HCRTR2), run by assay provider. It is filed as functional.
A further data set addresses T5, Estrogen receptor (Homo sapiens, UniProt P03372).
T5 sequence (P03372 whole entry): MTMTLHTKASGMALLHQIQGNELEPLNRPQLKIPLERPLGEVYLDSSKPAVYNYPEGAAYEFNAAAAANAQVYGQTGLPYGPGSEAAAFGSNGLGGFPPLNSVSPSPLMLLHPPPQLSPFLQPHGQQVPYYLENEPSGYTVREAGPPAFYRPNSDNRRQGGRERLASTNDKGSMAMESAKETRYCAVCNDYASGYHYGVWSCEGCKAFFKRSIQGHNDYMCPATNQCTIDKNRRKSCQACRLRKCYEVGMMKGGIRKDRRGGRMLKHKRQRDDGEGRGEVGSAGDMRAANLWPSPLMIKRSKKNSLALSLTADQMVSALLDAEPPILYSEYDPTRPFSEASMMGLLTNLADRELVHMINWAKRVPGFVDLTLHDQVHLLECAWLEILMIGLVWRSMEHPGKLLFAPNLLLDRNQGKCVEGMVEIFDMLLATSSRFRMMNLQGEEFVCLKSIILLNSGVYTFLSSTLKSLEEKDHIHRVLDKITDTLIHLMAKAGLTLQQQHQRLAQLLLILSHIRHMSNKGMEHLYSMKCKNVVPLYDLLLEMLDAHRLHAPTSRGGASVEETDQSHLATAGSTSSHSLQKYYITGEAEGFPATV

Delta-type opioid receptor, sequence (P41143 whole entry): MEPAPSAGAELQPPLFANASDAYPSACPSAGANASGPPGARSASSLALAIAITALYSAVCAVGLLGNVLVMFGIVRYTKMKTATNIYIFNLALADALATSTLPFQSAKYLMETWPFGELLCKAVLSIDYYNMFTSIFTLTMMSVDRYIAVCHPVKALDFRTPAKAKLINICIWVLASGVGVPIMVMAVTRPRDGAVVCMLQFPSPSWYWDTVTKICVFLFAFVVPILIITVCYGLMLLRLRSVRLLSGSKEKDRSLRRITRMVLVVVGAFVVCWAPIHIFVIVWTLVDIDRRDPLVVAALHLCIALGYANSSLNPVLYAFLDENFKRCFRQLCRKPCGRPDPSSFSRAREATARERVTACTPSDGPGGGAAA
5-hydroxytryptamine receptor 5A, sequence (P47898 whole entry): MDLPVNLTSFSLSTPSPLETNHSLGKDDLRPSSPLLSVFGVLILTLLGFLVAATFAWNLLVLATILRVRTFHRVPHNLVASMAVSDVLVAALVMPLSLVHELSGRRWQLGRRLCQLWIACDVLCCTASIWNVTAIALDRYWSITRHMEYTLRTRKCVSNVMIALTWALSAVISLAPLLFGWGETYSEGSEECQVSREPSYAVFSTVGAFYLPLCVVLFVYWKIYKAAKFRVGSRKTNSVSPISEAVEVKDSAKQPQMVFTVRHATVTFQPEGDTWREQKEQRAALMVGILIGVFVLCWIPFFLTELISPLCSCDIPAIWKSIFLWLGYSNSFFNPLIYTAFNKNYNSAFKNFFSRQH
Mu-type opioid receptor, sequence (P35372 whole entry): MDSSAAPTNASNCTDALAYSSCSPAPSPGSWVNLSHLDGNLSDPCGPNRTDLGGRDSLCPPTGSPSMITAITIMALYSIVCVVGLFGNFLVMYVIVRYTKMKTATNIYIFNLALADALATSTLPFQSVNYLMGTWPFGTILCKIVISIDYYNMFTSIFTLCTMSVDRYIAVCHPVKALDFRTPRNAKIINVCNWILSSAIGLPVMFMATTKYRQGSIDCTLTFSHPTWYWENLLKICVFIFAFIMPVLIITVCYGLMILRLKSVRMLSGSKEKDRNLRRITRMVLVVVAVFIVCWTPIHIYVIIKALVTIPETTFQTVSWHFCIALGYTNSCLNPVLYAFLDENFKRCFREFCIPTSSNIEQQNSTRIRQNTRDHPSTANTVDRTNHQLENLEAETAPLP
Cytochrome P450 2C19, sequence (P33261 whole entry): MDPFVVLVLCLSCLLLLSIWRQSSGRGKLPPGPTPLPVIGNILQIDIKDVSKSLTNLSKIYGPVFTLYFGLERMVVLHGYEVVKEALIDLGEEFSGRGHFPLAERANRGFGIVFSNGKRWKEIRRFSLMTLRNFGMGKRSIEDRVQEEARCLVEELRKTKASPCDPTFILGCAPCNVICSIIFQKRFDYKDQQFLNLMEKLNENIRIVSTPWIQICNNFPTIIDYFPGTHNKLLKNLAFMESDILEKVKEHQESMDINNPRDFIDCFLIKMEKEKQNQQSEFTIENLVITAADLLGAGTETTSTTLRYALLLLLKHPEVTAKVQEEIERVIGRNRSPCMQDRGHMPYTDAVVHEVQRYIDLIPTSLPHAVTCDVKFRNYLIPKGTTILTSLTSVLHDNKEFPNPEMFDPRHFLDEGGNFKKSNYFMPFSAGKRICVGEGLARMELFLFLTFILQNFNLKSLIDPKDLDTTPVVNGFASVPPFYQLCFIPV
Cytochrome P450 2C9, sequence (P11712 whole entry): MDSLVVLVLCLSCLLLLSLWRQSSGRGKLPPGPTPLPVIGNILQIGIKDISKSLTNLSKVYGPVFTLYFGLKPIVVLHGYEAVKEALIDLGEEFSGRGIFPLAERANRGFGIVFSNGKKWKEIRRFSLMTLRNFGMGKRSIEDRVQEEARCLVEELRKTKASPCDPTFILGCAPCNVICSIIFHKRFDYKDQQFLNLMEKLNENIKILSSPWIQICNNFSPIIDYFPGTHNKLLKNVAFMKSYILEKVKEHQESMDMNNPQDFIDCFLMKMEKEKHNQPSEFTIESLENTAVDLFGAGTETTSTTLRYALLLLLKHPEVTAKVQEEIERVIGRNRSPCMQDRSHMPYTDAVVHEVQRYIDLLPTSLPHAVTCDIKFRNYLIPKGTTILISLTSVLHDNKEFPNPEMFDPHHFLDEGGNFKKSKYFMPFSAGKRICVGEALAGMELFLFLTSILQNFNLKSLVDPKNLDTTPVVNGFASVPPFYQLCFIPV
Cytochrome P450 3A4, sequence (P08684 whole entry): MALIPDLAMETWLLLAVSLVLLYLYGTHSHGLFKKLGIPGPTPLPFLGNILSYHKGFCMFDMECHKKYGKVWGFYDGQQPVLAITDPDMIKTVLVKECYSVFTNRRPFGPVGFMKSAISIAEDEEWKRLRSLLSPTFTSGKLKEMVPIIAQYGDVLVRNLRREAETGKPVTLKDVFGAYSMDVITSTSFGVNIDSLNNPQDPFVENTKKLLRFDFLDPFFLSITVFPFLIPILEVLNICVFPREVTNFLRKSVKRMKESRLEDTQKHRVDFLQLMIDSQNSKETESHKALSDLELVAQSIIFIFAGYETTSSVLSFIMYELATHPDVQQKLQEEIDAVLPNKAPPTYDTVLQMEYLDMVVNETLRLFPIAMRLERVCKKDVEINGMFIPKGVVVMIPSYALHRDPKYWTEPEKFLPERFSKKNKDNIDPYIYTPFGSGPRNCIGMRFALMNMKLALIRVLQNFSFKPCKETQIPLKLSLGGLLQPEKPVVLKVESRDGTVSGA

For `CN1C2CCC1/C(=C\c1ccccc1)C(=O)/C2=C\c1ccccc1`, the EC50 was 6.92 µM (active) in [1], > 120 µM (not active) in data set [2] and > 120 µM (not active) in the data set with H4. The AC50 is 4.4 µM (active) in data set [3]; 10 µM (inconclusive) at Cytochrome P450 2C19; 39.8 µM (inconclusive) at Cytochrome P450 1A2; “inconclusive” at Cytochrome P450 3A4; “inconclusive” on Cytochrome P450 2C9.
On to `COc1ccccc1OCCNC(=O)c1ccc(Br)cc1`, for which the AC50 in [4] was 10.8 µM (active).
`CCn1cc(CNCc2cn(-c3ccccc3C)nc2-c2ccc(OC)c(F)c2)cn1`: the EC50 in data set [5] was 1.33 µM (active); in data set [6], 34.7 µM (inactive); on Mu-type opioid receptor it was 18.9 µM (inactive); in data set [7] it was > 92.5 µM (inactive).
For `N#CC(=C1SC=CS1)c1nc(-c2ccccc2)cs1`, the EC50 in data set [1] is 0.204 µM (active); in [2], 53.4 µM (active); in the data set with H4 it was > 120 µM (not active). In addition, the IC50 in the data set with CHO-K1 is > 66.2 µM (inactive); in data set [8], > 49.7 µM (inactive); in data set [9], 749 nM (active); in [10], 1.02 µM (active); on Orexin receptor type 2 [11], 6.66 µM (active); at Orexin receptor type 2 [12], 4.31 µM (active).
With `CCOC(=O)C1(CCCc2ccccc2)CCN(Cc2cnn(C)c2)CC1`, the EC50 in data set [5] was 0.596 µM (active); in data set [6], > 92.5 µM (inactive); on Mu-type opioid receptor it was 43 µM (inactive); in [7], > 92.5 µM (inactive).
For `CCn1c(SCC(=O)Nc2ccc3c(c2)c2ccccc2n3CC)nnc1-c1cnccn1`, the IC50 is > 50 µM (not active) against Estrogen receptor; > 66.3 µM (inactive) in the data set on CHO-K1; > 49.8 µM (inactive) in [8]; 54.8 nM (active) in data set [9]; 2.18 µM (active) in data set [10]; 38.9 µM (inactive) at Orexin receptor type 2 [11]. In addition, the IC50 at Orexin receptor type 2 [12] is 23.1 µM (inactive).

Usually EC50 stands for the concentration at which the effect is half-maximal. For orientation: AC50 means the midpoint of the concentration-response curve, whichever way the signal moves. One may read the IC50 as the concentration needed to halve the response being measured.
